Reference: patent US11129899B1, “Methotrexate derivatives and uses thereof” (S.S. Manufacturing Co., Ltd, priority 2021, dated 2021)

Experiments:
Lipid solubility in oil = assay type: physicochemical
Description: Embodied compound or Methrotrexate in DMSO (3 μg/μl) were dissolved in olive oil, canola oil and sunflower oil(Sigma-Aldrich (St. Louis, Mo., USA)) at 40° C. The suspended were vortexed and centrifuged at 3000 RPM, 10 mins periodically. Oil solvent volume was stepwise increased till completely soluble was observed and the soluble concentration were determined (Table 2). The solutions were left at 24° C. overnight and were centrifuged at 5000 RPM for 20 mins. Ten microliter of embodied compound in oils were added to 100 μl deionized (DI) water. The suspensions were vigorously vortex and left at room temperature.

MCF-7 cells = experiment: cells; assay type: cell-based; conditions: Homo sapiens, MCF7, 24 h, read-out: IC50 (cytotoxicity)
Description: The human breast cancer cell line, MCF-7, was obtained from American Type Cell Collection (ATCC) (Rockville, Mo., U.S.A.). The cells were cultured to 70-80% confluence in Dulbecco's modified Eagle medium (DMEM) (Gibco, Grand Island, N.Y., U.S.A.) with 10% fetal bovine serum (FBS) (Gibco) at 37° C. and 5% CO2. MCF-7 cells were plated overnight in a 96-well plate (4,000 cells per well). […] Next, 10 μl/well of WST-1/ECS solution from the Quick Cell Proliferation Colorimetric Assay Kit (BioVision, Inc., Milptas, Calif., U.S.A.) was added, and the solution was incubated for 2 hours at 37° C. and 5% CO2. Absorbance was measured at 480 nm with the Biochrom Anthos 2010 microplate reader (Biochrom Ltd., Cambourne, Cambridge, UK). The half maximal inhibitory concentrations (IC50) were calculated from log-linear regression from the absorbance optical density (OD).

[1] = target: T1, Dihydrofolate reductase (DHFR) (Homo sapiens, UniProt P00374); experiment: Dihydrofolate reductase (DHFR) inhibitor assay (Sigma-Aldrich DHFR assay kit); assay type: biochemical
T1 construct: purchased Sigma-Aldrich
T1 sequence (P00374 1-187): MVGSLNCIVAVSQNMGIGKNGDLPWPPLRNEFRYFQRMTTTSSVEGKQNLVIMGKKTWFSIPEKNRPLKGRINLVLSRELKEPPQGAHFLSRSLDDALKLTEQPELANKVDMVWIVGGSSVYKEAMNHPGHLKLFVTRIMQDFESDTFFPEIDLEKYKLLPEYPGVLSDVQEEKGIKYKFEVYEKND
Description: According to the supplier protocol, the activity of DHFR reductase was measured at […], every 15 seconds for 2.5 minutes, with the Biochrom Anthos 2010 microplate reader (Biochrom Ltd., Cambourne, Cambridge, UK). The enzymatic activity was calculated by the following formula: […]

| Compound | Solubility in Oil (40° C.) (Lipid solubility in oil; Canola Oil) | Solubility in Oil (40° C.) (Lipid solubility in oil; Olive Oil) | Solubility in Oil (40° C.) (Lipid solubility in oil; Sunflower Oil) | IC50 (MCF-7 cells) [µM] | Dihydrofolate reductase (DHFR) activity ([1]; inhibitor 5 mM [sic]) [Unit/mgP] | Dihydrofolate reductase (DHFR) activity ([1]; inhibitor 5 mM [sic], % of no inhibitor) [%] | Dihydrofolate reductase (DHFR) activity ([1]; inhibitor 50 mM [sic]) [Unit/mgP] | Dihydrofolate reductase (DHFR) activity ([1]; inhibitor 50 mM [sic], % of no inhibitor) [%] | Dihydrofolate reductase (DHFR) activity ([1]; inhibitor 500 mM [sic]) [Unit/mgP] | Dihydrofolate reductase (DHFR) activity ([1]; inhibitor 500 mM [sic], % of no inhibitor) [%] |
| --- | --- | --- | --- | --- | --- | --- | --- | --- | --- | --- |
| CN(Cc1cnc2nc(N)nc(N)c2n1)c1ccc(C(=O)N[C@@H](CCC(=O)O)C(=O)O)cc1 [MTX, (2S)-2-[(4-{[(2,4-diaminopteridin-6-yl)methyl](methyl)amino}phenyl)formamido]pentanedioic acid, reference compound] | less than 0.1 mg/100 ml | less than 0.1 mg/100 ml | less than 0.1 mg/100 ml | 3270 | – | – | – | – | – | – |
| CC(C)CCC[C@@H](C)[C@H]1CC[C@H]2[C@@H]3CC=C4C[C@@H](OC(=O)NCCCCNCCCNC(=O)[C@H](CCC(=O)O)NC(=O)c5ccc(N(C)Cc6cnc7nc(N)nc(N)c7n6)cc5)CC[C@]4(C)[C@H]3CC[C@]12C [Embodied compound, (4S)-4-{[3-({4-[({[(1R,3aS,3bS,7S,9aR,9bS,11aR)-9a,11a-dimethyl-1-[(2R)-6-methylheptan-2-yl]-1H,2H,3H,3aH,3bH,4H,6H,7H,8H,9H,9aH,9bH,10H,11H,11aH-cyclopenta[a]phenanthren-7-yl]oxy}carbonyl)amino]butyl}amino)propyl]carbamoyl}-4-[(4-{[(2,4-diaminopteridin-6-yl)methyl](methyl)amino}phenyl)formamido]butanoic acid] | 81.3 mg/100 ml | 48.1 mg/100 ml | 103.6 mg/100 ml | 60 | 1.261 | 8.41 | 0.561 | 3.74 | 0.561 | 3.74 |
